Biological target: T1, USP19 (Homo sapiens, UniProt O94966)
T1 sequence (O94966 1-1318): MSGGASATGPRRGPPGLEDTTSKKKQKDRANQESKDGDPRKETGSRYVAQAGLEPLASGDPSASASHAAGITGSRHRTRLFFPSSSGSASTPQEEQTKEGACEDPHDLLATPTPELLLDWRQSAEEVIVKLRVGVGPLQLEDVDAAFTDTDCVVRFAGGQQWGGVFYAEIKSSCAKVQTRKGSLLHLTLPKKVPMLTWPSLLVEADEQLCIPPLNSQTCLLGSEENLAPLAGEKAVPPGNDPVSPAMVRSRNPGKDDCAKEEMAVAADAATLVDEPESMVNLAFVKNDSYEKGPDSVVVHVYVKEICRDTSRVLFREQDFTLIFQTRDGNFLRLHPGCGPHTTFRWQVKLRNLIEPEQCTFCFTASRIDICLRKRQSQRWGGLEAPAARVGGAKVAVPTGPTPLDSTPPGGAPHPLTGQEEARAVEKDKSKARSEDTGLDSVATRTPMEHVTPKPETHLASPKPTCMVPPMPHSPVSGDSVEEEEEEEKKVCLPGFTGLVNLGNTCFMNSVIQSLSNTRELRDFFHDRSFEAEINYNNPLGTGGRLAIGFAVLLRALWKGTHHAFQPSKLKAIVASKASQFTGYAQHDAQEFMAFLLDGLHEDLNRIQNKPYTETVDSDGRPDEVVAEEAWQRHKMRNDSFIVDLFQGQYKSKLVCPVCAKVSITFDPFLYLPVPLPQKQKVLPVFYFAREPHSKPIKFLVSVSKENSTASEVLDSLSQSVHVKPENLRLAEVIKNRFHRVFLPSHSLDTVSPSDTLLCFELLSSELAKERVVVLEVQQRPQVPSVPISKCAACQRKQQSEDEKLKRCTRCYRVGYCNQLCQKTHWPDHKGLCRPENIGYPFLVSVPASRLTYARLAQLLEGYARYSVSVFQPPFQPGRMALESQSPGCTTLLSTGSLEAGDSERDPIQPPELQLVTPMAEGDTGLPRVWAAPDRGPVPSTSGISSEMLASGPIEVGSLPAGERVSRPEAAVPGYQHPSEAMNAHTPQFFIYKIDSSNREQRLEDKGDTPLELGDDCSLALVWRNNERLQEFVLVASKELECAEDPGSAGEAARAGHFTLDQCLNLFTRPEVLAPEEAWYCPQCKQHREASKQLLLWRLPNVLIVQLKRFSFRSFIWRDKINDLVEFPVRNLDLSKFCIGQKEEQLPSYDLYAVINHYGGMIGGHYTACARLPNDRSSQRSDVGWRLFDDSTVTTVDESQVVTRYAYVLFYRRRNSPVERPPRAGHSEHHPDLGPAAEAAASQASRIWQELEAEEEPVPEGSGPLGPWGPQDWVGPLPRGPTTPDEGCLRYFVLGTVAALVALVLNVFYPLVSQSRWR
Assay: USP19 fluorescence polarisation (FP) homogeneous assay
Assay type: biochemical
Set-up: Full-length USP19 was purchased from Boston Biochem (E-576); purchased Boston Biochem E-576
Conditions: Ubiquitin-Lys-TAMRA substrate, full-length USP19 2.5 nM, average of at least two duplicate experiments
Protocol: Unless otherwise stated, all other reagents were purchased from Sigma. Enzymatic reactions were conducted in black flat bottom polystyrene 384-well plates (Nunc) and 30 μL total volume. […] Inhibitors were stored as 10 mM DMSO stocks in an inert environment (low humidity, dark, low oxygen, room temperature) using the Storage Pod System and serial dilutions were prepared in buffer just prior to the assay (from 200 μM to 2 μM, 8-18 data point curve). Following incubation at RT for 30 min, the enzymatic reactions were initiated by dispensing the Ub substrate (500 nM, 10 μL). FP was measured every 15 min over a period of 90 min (within the linear range of the assay) using a Synergy 4 plate reader (BioTek) exciting at 530 nm and measuring the amount of parallel and perpendicular light at 575 nm. The FP signal was subsequently normalised to the no compound control.

| Structure (SMILES) | IC50 [µM] |
| --- | --- |
| CN(C)C(=O)c1cn(C[C@@]2(O)CCN(C(=O)[C@H](CO)CC3CCCCC3)CC2(C)C)c(=O)cc1-c1ccccc1 [Example 153, 1-(((R)-1-((S)-3-Cyclohexyl-2-(hydroxymethyl)propanoyl)-4-hydroxy-3,3-dimethylpiperidin-4-yl)methyl)-N,N-dimethyl-6-oxo-4-phenyl-1,6-dihydropyridine-3-carboxamide] | 5 to 50 |
| C[C@H](CC(F)(F)F)C(=O)N1CC[C@@](O)(Cn2cc(C(=O)N3CCNCC3)c(-c3ccccc3)cc2=O)C2(CCCC2)C1 [Example 217, 1-(((S)-10-Hydroxy-7-((R)-4,4,4-trifluoro-2-methylbutanoyl)-7-azaspiro[4.5]decan-10-yl)methyl)-4-phenyl-5-(piperazine-1-carbonyl)pyridin-2(1H)-one] | < 0.5 |
| C[C@H](CC1CCCCC1)C(=O)N1CC[C@@](O)(Cn2cc(C(=O)N(C)C)c(C3CC3)cc2=O)C2(CCCC2)C1 [Example 232, 1-(((S)-7-((R)-3-Cyclohexyl-2-methylpropanoyl)-10-hydroxy-7-azaspiro[4.5]decan-10-yl)methyl)-4-cyclopropyl-N,N-dimethyl-6-oxo-1,6-dihydropyridine-3-carboxamide] | < 0.5 |
| C[C@H](CC1CCCCC1)C(=O)N1CCC(O)(Cn2cnc(-c3ccccc3F)cc2=O)C2(CCCC2)C1 (stereo partly drawn) [Example 119, 3-((7-((R)-3-Cyclohexyl-2-methylpropanoyl)-10-hydroxy-7-azaspiro[4.5]decan-10-yl)methyl)-6-(2-fluorophenyl)pyrimidin-4(3H)-one] | < 0.5 |
| O=C([C@@H]1CNC[C@H]1c1ccccc1)N1CC[C@@](O)(Cn2cnc(-c3ccccc3)cc2=O)C2(CCCC2)C1 (mixture of isomers) [Example 259, 3-(((S)-10-Hydroxy-7-((3S,4R)-4-phenylpyrrolidine-3-carbonyl)-7-azaspiro[4.5]decan-10-yl)methyl)-6-phenylpyrimidin-4(3H)-one and 3-(((S)-10-Hydroxy-7-((3R,4S)-4-phenylpyrrolidine-3-carbonyl)-7-azaspiro[4.5]decan-10-yl)methyl)-6-phenylpyrimidin-4(3H)-one] | < 0.5 |
| C[C@H](CC1CCCCC1)C(=O)N1CCC(O)(Cn2cnc(-c3ccccc3)cc2=O)C(C)(C)C1 (mixture of isomers) [Example 50, 3-(((R)-1-((R)-3-Cyclohexyl-2-methylpropanoyl)-4-hydroxy-3,3-dimethylpiperidin-4-yl)methyl)-6-phenylpyrimidin-4(3H)-one and 3-(((S)-1-((R)-3-Cyclohexyl-2-methylpropanoyl)-4-hydroxy-3,3-dimethylpiperidin-4-yl)methyl)-6-phenylpyrimidin-4(3H)-one] | < 0.5 |
| C[C@H](CC1CCCCC1)C(=O)N1CCC(O)(Cn2cc(C(=O)N3CCNCC3)c(-c3ccccc3)cc2=O)C2(CCCCC2)C1 (stereo partly drawn) [Example 238, 1-((2-((R)-3-Cyclohexyl-2-methylpropanoyl)-5-hydroxy-2-azaspiro[5.5]undecan-5-yl)methyl)-4-phenyl-5-(piperazine-1-carbonyl)pyridin-2(1H)-one] | < 0.5 |
| C[C@H](CC1CCCCC1)C(=O)N1CCC(O)(Cn2cc(C(=O)N3CCN(C)CC3)c(-c3ccccc3)cc2=O)C(C)(C)C1 (stereo partly drawn) [Example 170, 1-((1-((R)-3-Cyclohexyl-2-methylpropanoyl)-4-hydroxy-3,3-dimethylpiperidin-4-yl)methyl)-5-(4-methylpiperazine-1-carbonyl)-4-phenylpyridin-2(1H)-one] | < 0.5 |
| C[C@H](CC1CCCCC1)C(=O)N1CC[C@@](O)(Cn2cc(C(=O)N3CCN(C)CC3)c(-c3ccccc3)cc2=O)C2(CCCC2)C1 [Example 240, 1-(((S)-7-((R)-3-Cyclohexyl-2-methylpropanoyl)-10-hydroxy-7-azaspiro[4.5]decan-10-yl)methyl)-5-(4-methylpiperazine-1-carbonyl)-4-phenylpyridin-2(1 H)-one] | < 0.5 |
| C[C@H](CC1CCCCC1)C(=O)N1CC[C@@](O)(Cn2cc(C(=O)N(C)C)c(-c3ccccc3)cc2=O)C(C)(C)C1 [Example 121, 1-(((S)-1-((R)-3-Cyclohexyl-2-methylpropanoyl)-4-hydroxy-3,3-dimethylpiperidin-4-yl)methyl)-N,N-dimethyl-6-oxo-4-phenyl-1,6-dihydropyridine-3-carboxamide] | < 0.5 |
| C[C@H](CC(F)(F)F)C(=O)N1CC[C@@](O)(Cn2cc(C(=O)N(C)C)c(-c3ccccc3)cc2=O)C2(CCCC2)C1 [Example 216, 1-(((S)-10-Hydroxy-7-((R)-4,4,4-trifluoro-2-methylbutanoyl)-7-azaspiro[4.5]decan-10-yl)methyl)-N,N-dimethyl-6-oxo-4-phenyl-1,6-dihydropyridine-3-carboxamide] | < 0.5 |
| C[C@H](CC1CCCCC1)C(=O)N1CC[C@@](O)(Cn2cc(C(=O)O)c(-c3ccccc3)cc2=O)C2(CCCC2)C1 [Example 253, 1-(((S)-7-((R)-3-Cyclohexyl-2-methylpropanoyl)-10-hydroxy-7-azaspiro[4.5]decan-10-yl)methyl)-6-oxo-4-phenyl-1,6-dihydropyridine-3-carboxylic acid] | < 0.5 |

The remaining lines, values ahead:

| IC50 [µM] | Structure (SMILES) |
| --- | --- |
| < 0.5 | CC(=O)N1CCN(C(=O)c2cn(CC3(O)CCN(C(=O)[C@H](C)CC4CCCCC4)CC3(C)C)c(=O)cc2-c2ccccc2)CC1 (stereo partly shown) [Example 169] |
| < 0.5 | CN(C)C(=O)c1cn(C[C@]2(O)CCN(C(=O)[C@H](CO)CC(F)(F)F)CC23CCCC3)c(=O)cc1-c1ccccc1 [Example 247, 1-(((S)-10-Hydroxy-7-((S)-4,4,4-trifluoro-2-(hydroxymethyl)butanoyl)-7-azaspiro[4.5]decan-10-yl)methyl)-N,N-dimethyl-6-oxo-4-phenyl-1,6-dihydropyridine-3-carboxamide] |
| < 0.5 | COC[C@H](CC1CCCCC1)C(=O)N1CC[C@@](O)(Cn2cc(C(=O)N(C)C)c(-c3ccccc3)cc2=O)C(C)(C)C1 [Example 160, 1-(((S)-1-((S)-3-Cyclohexyl-2-(methoxymethyl)propanoyl)-4-hydroxy-3,3-dimethylpiperidin-4-yl)methyl)-N,N-dimethyl-6-oxo-4-phenyl-1,6-dihydropyridine-3-carboxamide] |
| < 0.5 | C[C@H](CC(C)(F)F)C(=O)N1CC[C@@](O)(Cn2cnc(-c3ccccc3)cc2=O)C2(CCCC2)C1 [Example 258, 3-(((S)-7-((R)-4,4-Difluoro-2-methylpentanoyl)-10-hydroxy-7-azaspiro[4.5]decan-10-yl)methyl)-6-phenylpyrimidin-4(3H)-one] |
| < 0.5 | C[C@H](CC(F)(F)F)C(=O)N1CC[C@@](O)(Cn2cc(C(=O)N3CCN(C)CC3)c(-c3ccccc3)cc2=O)C2(CCCC2)C1 [Example 251, 1-(((S)-10-Hydroxy-7-((R)-4,4,4-trifluoro-2-methylbutanoyl)-7-azaspiro[4.5]decan-10-yl)methyl)-5-(4-methylpiperazine-1-carbonyl)-4-phenylpyridin-2(1 H)-one] |
| < 0.5 | C[C@H](CC1CCCCC1)C(=O)N1CC[C@@](O)(Cn2cc(C(=O)N3CCCC3)c(-c3ccccc3)cc2=O)C(C)(C)C1 [Example 123, 1-(((S)-1-((R)-3-Cyclohexyl-2-methylpropanoyl)-4-hydroxy-3,3-dimethylpiperidin-4-yl)methyl)-4-phenyl-5-(pyrrolidine-1-carbonyl)pyridin-2(1H)-one] |
| < 0.5 | CN(C)C(=O)c1cn(C[C@]2(O)CCN(C(=O)[C@H](CO)CC3CCCCC3)CC2(C)C)c(=O)cc1-c1ccccc1 [Example 152, 1-(((S)-1-((S)-3-Cyclohexyl-2-(hydroxymethyl)propanoyl)-4-hydroxy-3,3-dimethylpiperidin-4-yl)methyl)-N,N-dimethyl-6-oxo-4-phenyl-1,6-dihydropyridine-3-carboxamide] |

Reference: patent US20220016115A1, “USP19 INHIBITORS FOR USE IN THERAPY” (ALMAC DISCOVERY LIMITED, priority 2018, published 2022)
